Results taken from the CheMixHub drug solubility set.

Assay: xn = mol fraction of the nth substance listed, in the solute-free solvent

COc1cc2c(cc1OC)-c1cc3ccc(OC)c(OC)c3c[n+]1CC2.[Cl-] + OCCO + O
solubility (g/100 g solution)
Conditions	283.15 K	288.15 K	293.15 K	298.15 K	303.15 K	308.15 K	313.15 K	318.15 K	323.15 K	328.15 K
x2 = 0.03125	1.2	1.46	1.83	2.28	2.8	3.39	4.08	4.86	5.75	6.75
x2 = 0.06767	1.25	1.51	1.89	2.35	2.88	3.48	4.19	4.98	5.89	6.91
x2 = 0.1107	1.33	1.6	1.99	2.47	3.02	3.65	4.37	5.2	6.13	7.19
x2 = 0.1622	1.41	1.69	2.09	2.58	3.15	3.8	4.55	5.4	6.36	7.45
x2 = 0.225	1.47	1.78	2.23	2.74	3.31	3.98	4.71	5.6	6.54	7.6
x2 = 0.3034	1.49	1.82	2.23	2.74	3.27	3.96	4.69	5.57	6.5	7.55
x2 = 0.4038	1.45	1.79	2.16	2.64	3.18	3.77	4.46	5.28	6.2	7.26
x2 = 0.5373	1.36	1.65	2.01	2.43	2.92	3.5	4.22	4.93	5.81	6.75
x2 = 0.7232	1.23	1.46	1.79	2.17	2.63	3.15	3.76	4.44	5.21	6.07

CC(C)OC(=O)C(C)NP(=O)(OCC1OC(n2ccc(=O)[nH]c2=O)C(C)(F)C1O)Oc1ccccc1 (stereo not given) + CC(C)=O + O
solubility (g/100 g solution)
Conditions	278.15 K	283.15 K	288.15 K	293.15 K	298.15 K	303.15 K	308.15 K	313.15 K	318.15 K
x2 = 0.03333	0.447	0.659	0.884	1.19	1.57	2.08	2.72	3.52	4.39
x2 = 0.07199	1.86	2.63	3.43	4.47	5.72	7.3	9.16	11.4	13.7
x2 = 0.1174	3.81	5.24	6.7	8.54	10.7	13.3	16.2	19.6	23.1
x2 = 0.1714	5.39	7.25	9.19	11.6	14.2	17.4	21	25.1	29.1
x2 = 0.2368	6.68	8.82	11.1	13.8	16.9	20.4	24.2	28.4	32.6
x2 = 0.3176	8.37	10.8	13.6	16.7	20.2	24	28.1	32.4	36.8
x2 = 0.42	11.2	14.2	17.5	21.1	24.9	28.9	33.3	37.8	42.6
x2 = 0.5538	15	18.1	21.8	26.1	30.7	35.3	40.1	45	49.6
x2 = 0.7363	18.3	22.9	27.4	32.1	37.1	42.2	47	51.8	56.6

Cc1ncc(C[n+]2csc(CCO)c2C)c(N)n1.O=[N+]([O-])[O-] + O + CO
solubility (g/100 g solution)
Conditions	x2 = 0.1	x2 = 0.2	x2 = 0.3	x2 = 0.4	x2 = 0.5	x2 = 0.6	x2 = 0.7	x2 = 0.8	x2 = 0.9
278.15 K	0.197	0.323	0.483	0.678	0.884	1.03	1.17	1.18	1.2
283.15 K	0.221	0.371	0.566	0.801	1.05	1.24	1.41	1.43	1.44
288.15 K	0.273	0.429	0.66	0.918	1.24	1.47	1.67	1.68	1.7
293.15 K	0.35	0.52	0.79	1.08	1.47	1.77	2.02	2.04	2.08
298.15 K	0.422	0.636	0.951	1.34	1.77	2.19	2.5	2.54	2.54
303.15 K	0.518	0.786	1.17	1.64	2.18	2.68	3.06	3.14	3.1
308.15 K	0.657	0.983	1.46	1.96	2.64	3.23	3.75	3.85	3.77
313.15 K	0.812	1.24	1.81	2.52	3.25	3.94	4.6	4.72	4.55

CCC(C)n1ncn(-c2ccc(N3CCN(c4ccc(OCC5COC(Cn6cncn6)(c6ccc(Cl)cc6Cl)O5)cc4)CC3)cc2)c1=O (stereo not given) + ClCCl + CCCO
solubility (g/100 g solution)
Conditions	x2 = 0.07363	x2 = 0.1517	x2 = 0.2346	x2 = 0.3229	x2 = 0.417	x2 = 0.5176	x2 = 0.6254	x2 = 0.741	x2 = 0.8656
288.15 K	0.0545	0.15	0.459	1.65	3.95	8.85	14.4	19.5	21.8
293.15 K	0.0662	0.199	0.602	2.05	4.66	9.92	15.7	20.8	22.9
298.15 K	0.0798	0.258	0.786	2.52	5.51	11.1	17	22	24
303.15 K	0.0965	0.332	0.996	3.08	6.4	12.3	18.3	23.3	25.1
308.15 K	0.115	0.424	1.27	3.71	7.42	13.6	19.7	24.6	26.2

CN1CCN(C2=Nc3cc(Cl)ccc3Nc3ccccc32)CC1 + CN1CCCC1=O + O
solubility (g/100 g solution)
Conditions	x2 = 0.0198	x2 = 0.04347	x2 = 0.07228	x2 = 0.1081	x2 = 0.1538	x2 = 0.2143	x2 = 0.2979	x2 = 0.421	x2 = 0.6207
278.15 K	0.00909	0.045	0.169	0.497	1.2	2.31	3.88	5.87	7.69
283.15 K	0.0126	0.0614	0.224	0.65	1.5	2.92	4.64	6.96	9.05
288.15 K	0.0173	0.0846	0.297	0.832	1.86	3.58	5.6	8.28	10.5
293.15 K	0.0228	0.113	0.388	1.02	2.32	4.34	6.81	9.65	12
298.15 K	0.0318	0.148	0.501	1.3	2.84	5.22	7.94	11.2	13.9
303.15 K	0.0423	0.192	0.629	1.6	3.48	6.19	9.35	12.8	15.9
308.15 K	0.0547	0.257	0.793	2.01	4.21	7.31	10.9	14.7	18
313.15 K	0.071	0.329	1.02	2.46	5.04	8.54	12.7	16.8	20.2
318.15 K	0.0919	0.419	1.25	2.99	5.94	9.98	14.5	19	22.5
323.15 K	0.12	0.537	1.56	3.57	6.98	11.6	16.5	21.4	25.1
328.15 K	0.155	0.673	1.89	4.3	8.24	13.4	18.7	24	28

CCC(C)n1ncn(-c2ccc(N3CCN(c4ccc(OCC5COC(Cn6cncn6)(c6ccc(Cl)cc6Cl)O5)cc4)CC3)cc2)c1=O (stereo not given) + ClC(Cl)Cl + CCCCO
solubility (g/100 g solution)
Conditions	x2 = 0.06524	x2 = 0.1357	x2 = 0.2121	x2 = 0.2952	x2 = 0.3858	x2 = 0.4851	x2 = 0.5945	x2 = 0.7153	x2 = 0.8497
288.15 K	0.0548	0.12	0.336	0.987	3.22	7.01	12	17.9	23.9
293.15 K	0.0651	0.142	0.387	1.18	3.56	7.85	13.2	18.9	24.8
298.15 K	0.0777	0.171	0.445	1.39	3.92	8.74	14.3	20.1	25.6
303.15 K	0.0924	0.202	0.509	1.65	4.3	9.68	15.4	21.3	26.5
308.15 K	0.109	0.237	0.583	1.93	4.71	10.7	16.6	22.4	27.4

CN1CCN(C2=Nc3cc(Cl)ccc3Nc3ccccc32)CC1 + Cc1ccccc1 + CC(C)=O
323.15 K
Conditions	solubility (g/100 g solution)
x2 = 0.06574	13.6
x2 = 0.1358	15.9
x2 = 0.2124	17.4
x2 = 0.2962	17
x2 = 0.3864	17
x2 = 0.4859	16
x2 = 0.5953	14.7
x2 = 0.7159	12.9
x2 = 0.8497	10.3

CN1CCN(C2=Nc3cc(Cl)ccc3Nc3ccccc32)CC1 + CC(C)=O + Cc1ccccc1
solubility (g/100 g solution)
Conditions	x2 = 0.1503	x2 = 0.2841	x2 = 0.4047	x2 = 0.5141	x2 = 0.6136	x2 = 0.7038	x2 = 0.7876	x2 = 0.8642	x2 = 0.9343
293.15 K	4.2	5.72	6.98	7.87	8.37	8.49	8.42	8.02	7.41
298.15 K	4.59	6.06	7.92	8.77	9.44	9.83	9.53	9.03	8.42
303.15 K	5.42	7.16	8.86	9.9	10.6	10.7	9.99	9.78	8.81
308.15 K	6.11	8.41	9.86	10.9	11.9	12.3	11.6	11.3	10.4
313.15 K	7.38	9.81	11.5	12.7	13.4	13.6	13.4	12.9	11.9
318.15 K	8.97	11.4	13.2	14.3	15.4	15.3	15.5	14.8	13.4
